Test results from patent US20260083865A1, “PROSTATE SPECIFIC MEMBRANE ANTIGEN (PSMA) LIGANDS AND USE THEREOF” (priority 2022, published 2026).
Numbered stars: 1 amine (or outer) side, 2 acyl side, 3 side chain; on linkers, the order of the positions; unused ones are H or OH. Bridge positions count the residues as written; N and C are the ends. Square brackets hold non-standard residues; d marks the D form. Peptide text beside a SMILES is read from it. * marks the point of attachment. TtdsdLys(DOTA)NH2 = NC(=O)[C@@H](CCCCNC(=O)CN1CCN(CC(=O)O)CCN(CC(=O)O)CCN(CC(=O)O)CC1)NC(=O)CCC(=O)NCCCOCCOCCOCCCN*; Acetyl(1-DOTA-4-piperidyl) = O=C(O)CN1CCN(CC(=O)O)CCN(CC(=O)N2CCC(CC(=O)*)CC2)CCN(CC(=O)O)CC1; DOTA = O=C(O)CN1CCN(CC(=O)O)CCN(CC(=O)*)CCN(CC(=O)O)CC1; Trp(5-Cl) = N[C@@H](Cc1c[nH]c2ccc(Cl)cc12)C(=O)O; Phe(4-Cl) = N[C@@H](Cc1ccc(Cl)cc1)C(=O)O; Arg(Me) = CNC(=N)NCCC[C@H](N)C(=O)O; Ethylenediamine = C(CN[*:2])N[*:1]; NMeF = CN[C@@H](Cc1ccccc1)C(=O)O; hArg = N=C(N)NCCCC[C@H](N)C(=O)O; X1 = O=C(CC1CCN([*:1])CC1)[*:2]; Cit = NC(=O)NCCC[C@H](N)C(=O)O; Lys(Me) = CNCCCC[C@H](N)C(=O)O; d(αMeS) = C[C@@](N)(CO)C(=O)O; Tle = CC(C)(C)[C@H](N)C(=O)O; 4Abz = Nc1ccc(C(=O)O)cc1; Nle = CCCC[C@H](N)C(=O)O; Api = NC1(C(=O)O)CCNCC1; Aib = CC(C)(N)C(=O)O; Ahx = NCCCCCC(=O)O; GABA = NCCCC(=O)O

Experiments:
[1] = target: T1, PSMA-expressing C4-2 cells (Homo sapiens, UniProt Q04609); test: FACS binding assay (competition with 50 nM PSM-0183); details: FACS binding, PSMA-expressing C4-2 cells, pIC50 category; for IC50: read-out: pIC50 [C4-2] CAT (converted)
T1 construct: PSMA-expressing C4-2 cells (ATCC, Cat. No. CRL-3314) were cultured in RPMI-1640; host or cells: C4-2 cells
T1 sequence (Q04609 whole entry): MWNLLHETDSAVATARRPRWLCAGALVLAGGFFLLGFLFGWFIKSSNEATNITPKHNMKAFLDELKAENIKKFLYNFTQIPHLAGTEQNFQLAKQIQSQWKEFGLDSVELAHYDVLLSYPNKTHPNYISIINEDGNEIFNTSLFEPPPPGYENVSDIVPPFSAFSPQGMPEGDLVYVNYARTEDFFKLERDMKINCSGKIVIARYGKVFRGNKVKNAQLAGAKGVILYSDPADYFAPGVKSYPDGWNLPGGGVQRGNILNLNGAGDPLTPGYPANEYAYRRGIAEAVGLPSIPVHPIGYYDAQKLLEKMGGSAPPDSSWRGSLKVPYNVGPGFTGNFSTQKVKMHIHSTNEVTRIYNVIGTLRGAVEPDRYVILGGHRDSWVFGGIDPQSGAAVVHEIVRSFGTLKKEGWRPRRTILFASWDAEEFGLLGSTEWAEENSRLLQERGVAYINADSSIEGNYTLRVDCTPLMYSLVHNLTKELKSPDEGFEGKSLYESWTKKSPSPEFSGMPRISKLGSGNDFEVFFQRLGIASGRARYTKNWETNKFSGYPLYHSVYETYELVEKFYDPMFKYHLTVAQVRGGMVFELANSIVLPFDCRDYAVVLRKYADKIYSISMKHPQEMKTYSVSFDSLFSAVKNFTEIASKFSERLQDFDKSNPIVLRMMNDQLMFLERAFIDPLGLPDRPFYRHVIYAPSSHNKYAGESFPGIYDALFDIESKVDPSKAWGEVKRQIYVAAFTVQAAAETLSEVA
How it was run: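 Competition format: fluorescent tracer PSM-0183 (50 nM) displaced from PSMA on C4-2 cells by a test compound titration over 1 h at 4 °C. Bound tracer was quantified as flow-cytometric AF488 median fluorescence after washing. Four-parameter logistic fits of MFI data gave IC50 and pIC50.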

[2] = target: T2, Fc-fusion protein of human PSMA (hPSMA-Fc) (Homo sapiens, UniProt Q04609); test: Surface plasmon resonance assay (Biacore T200, single cycle kinetic); assay type: binding; details: PSMA SPR assay, hPSMA-Fc, 25° C.; pKD category; read-out: pKD CAT (converted)
T2 construct: purchased Acro Biosystems PSA-H5264
T2 sequence (Q04609 44-750 limits assumed): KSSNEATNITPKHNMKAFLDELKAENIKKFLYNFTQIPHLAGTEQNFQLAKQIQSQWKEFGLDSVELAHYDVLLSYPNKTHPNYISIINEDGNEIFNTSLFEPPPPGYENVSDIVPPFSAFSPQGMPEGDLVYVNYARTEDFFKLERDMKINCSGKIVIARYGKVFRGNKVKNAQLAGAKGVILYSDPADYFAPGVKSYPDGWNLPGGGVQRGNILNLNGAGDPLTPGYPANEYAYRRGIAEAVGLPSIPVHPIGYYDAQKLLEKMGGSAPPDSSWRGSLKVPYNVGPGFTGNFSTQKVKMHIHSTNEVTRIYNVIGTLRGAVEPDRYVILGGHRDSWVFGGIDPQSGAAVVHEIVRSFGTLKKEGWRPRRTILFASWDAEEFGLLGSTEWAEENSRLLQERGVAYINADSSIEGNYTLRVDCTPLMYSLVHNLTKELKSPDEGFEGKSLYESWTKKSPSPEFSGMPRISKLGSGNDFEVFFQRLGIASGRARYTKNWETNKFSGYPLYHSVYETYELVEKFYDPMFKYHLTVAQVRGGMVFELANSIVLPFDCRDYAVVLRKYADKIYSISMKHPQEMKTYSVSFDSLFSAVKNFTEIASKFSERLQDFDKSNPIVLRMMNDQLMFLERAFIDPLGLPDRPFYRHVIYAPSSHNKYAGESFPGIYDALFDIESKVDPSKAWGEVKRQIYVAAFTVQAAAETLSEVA
How it was run: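 KD, expressed as pKD, came from 1:1 Langmuir fits of reference- and buffer-blank-subtracted SPR data. The runs were single-cycle kinetics at 25° C in HBST/0.1% DMSO over human PSMA-Fc, captured to ~1000 RU on a peptide-coated CM5 surface and regenerated with 10 mM glycine pH 1.5.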

| Structure (SMILES) | IC50 [1] [nM] | Kd [2] [nM] | pIC50 [C4-2] CAT [1] |
| --- | --- | --- | --- |
| CC(=O)N[C@H](C(=O)NC(C)(C)C(=O)N[C@@H](Cc1ccccc1)C(=O)N[C@H]1CSSC[C@@H](C(=O)N[C@H](C(=O)N[C@H](C(=O)N[C@@H](CC(=O)O)C(N)=O)[C@@H](C)O)C(C)(C)C)NC(=O)[C@H](CC(N)=O)NC(=O)[C@H](C)NC(=O)[C@H](CCCNC(N)=O)NC(=O)[C@H](CCCCN)NC1=O)[C@@H](C)O [PSM-0307, Ac-Thr-Aib-Pho-[Cys-Lys-Cit-Ala-Asn-Cys]-Tle-Thr-Asp-NH2] (Ac-T[Aib]FCK[Cit]ANC[Tle]TD-NH2; disulfide 4-9) | < 200 | < 12.6 |  |
| CNCCCC[C@@H]1NC(=O)[C@@H](NC(=O)[C@H](Cc2c[nH]c3ccc(Cl)cc23)NC(=O)C(C)(C)NC(=O)[C@@H](NC(=O)CC2CCN(C(=O)CN3CCN(CC(=O)O)CCN(CC(=O)O)CCN(CC(=O)O)CC3)CC2)[C@@H](C)O)CSSC[C@@H](C(=O)N[C@H](C(=O)N[C@H](C(N)=O)[C@@H](C)O)C(C)(C)C)NC(=O)[C@H](CC(N)=O)NC(=O)C(C)(C)NC(=O)[C@H](CCCNC(=N)NC)NC1=O [PSM-0308, DOTA-Cmp-Thr-Aib-5Clw-[Cys-Lys(Me)-Arg(Me)-Aib-Asn-Cys]-Tle-Thr-NH2] ({DOTA}-[X1]T[Aib][Trp(5-Cl)]C[Lys(Me)][Arg(Me)][Aib]NC[Tle]T-NH2; disulfide 5-10) | 200 to 1260 | 126 to 501 |  |
| C[C@@H](O)[C@H](NC(=O)[C@@H](NC(=O)[C@@H]1CSSC[C@H](NC(=O)[C@H](Cc2ccc(Cl)cc2)NC(=O)C(C)(C)NC(=O)CCCCCNC(=O)CN2CCN(CC(=O)O)CCN(CC(=O)O)CCN(CC(=O)O)CC2)C(=O)N[C@@H](CCCCN)C(=O)N[C@@H](CCCNC(=N)N)C(=O)NC(C)(C)C(=O)N[C@@H](CC(N)=O)C(=O)N1)C(C)(C)C)C(N)=O [PSM-0310, DOTA-Ahx-Aib-Pcf-[Cys-Lys-Arg-Aib-Asn-Cys]-Tle-Thr-NH2] ({DOTA-Ahx}-[Aib][Phe(4-Cl)]CKR[Aib]NC[Tle]T-NH2; disulfide 3-8) | < 200 | < 12.6 |  |
| CCCC[C@H](NC(=O)[C@@H]1CSSC[C@H](NC(=O)[C@H](Cc2ccccc2)NC(=O)[C@H](C)NC(=O)[C@@H](NC(C)=O)[C@@H](C)O)C(=O)N[C@@H](CCCCN)C(=O)N[C@@H](CCCNC(=N)N)C(=O)N[C@@H](C)C(=O)N[C@@H](CC(N)=O)C(=O)N1)C(=O)N[C@H](C(=O)NCCCC(=O)O)[C@@H](C)O [PSM-0313, Ac-Thr-Ala-Phe-[Cys-Lys-Arg-Ala-Asn-Cys]-Nle-Thr-Gab-OH] (Ac-TAFCKRANC[Nle]T[GABA]-OH; disulfide 4-9) | 200 to 1260 | 126 to 501 |  |
| C[C@@H](O)[C@H](NC(=O)[C@@H](NC(=O)[C@@H]1CSSC[C@H](NC(=O)[C@H](Cc2ccc(Cl)cc2)NC(=O)C(C)(C)NC(=O)[C@@H](NC(=O)CC2CCN(C(=O)CN3CCN(CC(=O)O)CCN(CC(=O)O)CCN(CC(=O)O)CC3)CC2)[C@@H](C)O)C(=O)N[C@@H](CCCCN)C(=O)N[C@@H](CCCNC(=N)N)C(=O)N[C@](C)(CO)C(=O)N[C@@H](CC(N)=O)C(=O)N1)C(C)(C)C)C(N)=O [PSM-0314, DOTA-Cmp-Thr-Aib-Pcf-[Cys-Lys-Arg-ams-Asn-Cys]-Tle-Thr-NH2] ({DOTA}-[X1]T[Aib][Phe(4-Cl)]CKR[d(αMeS)]NC[Tle]T-NH2; disulfide 5-10) | < 200 | < 12.6 |  |
| CC(=O)N[C@H](C(=O)NC(C)(C)C(=O)N[C@@H](Cc1ccccc1)C(=O)N[C@H]1CSSC[C@@H](C(=O)N[C@H](C(=O)N[C@H](C(=O)N[C@@H](CC(=O)O)C(N)=O)[C@@H](C)O)C(C)(C)C)NC(=O)[C@H](CC(N)=O)NC(=O)[C@H](C)NC(=O)[C@H](CCCNC(=N)N)NC(=O)[C@H](CCCCN)NC1=O)[C@@H](C)O [PSM-0315, Ac-Thr-Aib-Phe-[Cys-Lys-arg-Als-Asn-Cys]-Tle-Thr-Asp-NH2] (Ac-T[Aib]FCKRANC[Tle]TD-NH2; disulfide 4-9) |  | 12.6 to 126 | A (pIC50 values >6.7) |
| C[C@@H](O)[C@H](NC(=O)[C@@H](NC(=O)[C@@H]1CSSC[C@H](NC(=O)[C@H](Cc2ccccc2)NC(=O)C(C)(C)NC(=O)c2ccc(NC(=O)CN3CCN(CC(=O)O)CCN(CC(=O)O)CCN(CC(=O)O)CC3)cc2)C(=O)N[C@@H](CCCCN)C(=O)N[C@@H](CCCNC(=N)N)C(=O)NC(C)(C)C(=O)N[C@@H](CC(N)=O)C(=O)N1)C(C)(C)C)C(N)=O [PSM-0316, DOTA-Pab-Aib-Phe-[Cys-Lys-Arg-Aib-Asn-Cys]-Tle-Thr-NH2] ({DOTA-4Abz}-[Aib]FCKR[Aib]NC[Tle]T-NH2; disulfide 3-8) | < 200 | < 12.6 |  |
| C[C@@H](O)[C@H](NC(=O)[C@@H](NC(=O)[C@@H]1CSSC[C@H](NC(=O)[C@H](Cc2ccc(Cl)cc2)NC(=O)C(C)(C)NC(=O)[C@@H](NC(=O)CC2CCN(C(=O)CN3CCN(CC(=O)O)CCN(CC(=O)O)CCN(CC(=O)O)CC3)CC2)[C@@H](C)O)C(=O)N[C@@H](CCCCN)C(=O)N[C@@H](CCCCNC(=N)N)C(=O)NC(C)(C)C(=O)N[C@@H](CC(N)=O)C(=O)N1)C(C)(C)C)C(N)=O [PSM-0317, DOTA-Cmp-Thr-Aib-Pcf-[Cys-Lys-Har-Aib-Asn-Cys]-Tle-Thr-NH2] ({DOTA}-[X1]T[Aib][Phe(4-Cl)]CK[hArg][Aib]NC[Tle]T-NH2; disulfide 5-10) | < 200 | < 12.6 |  |
| CC(=O)N[C@H](C(=O)NC(C)(C)C(=O)N[C@@H](Cc1ccc(Cl)cc1)C(=O)N[C@H]1CSSC[C@@H](C(=O)N[C@H](C(=O)N[C@H](C(=O)N[C@@H](CC(=O)O)C(N)=O)[C@@H](C)O)C(C)(C)C)NC(=O)[C@H](CC(N)=O)NC(=O)C(C)(C)NC(=O)[C@H](CCCNC(=N)N)NC(=O)[C@H](CCCCN)NC1=O)[C@@H](C)O [PSM-0318, Ac-Thr-Aib-Pcf-[Cys-Lys-Arg-Aib-Asn-Cys]-Tle-Thr-Asp-NH2] (Ac-T[Aib][Phe(4-Cl)]CKR[Aib]NC[Tle]TD-NH2; disulfide 4-9) | < 200 | < 12.6 |  |
| CC(=O)N[C@H](C(=O)N[C@@H](C)C(=O)N(C)[C@@H](Cc1ccccc1)C(=O)N[C@H]1CSSC[C@@H](C(=O)N[C@H](C(=O)N[C@H](C(N)=O)[C@@H](C)O)C(C)(C)C)NC(=O)[C@H](CC(N)=O)NC(=O)C(C)(C)NC(=O)[C@H](CCCNC(=N)N)NC(=O)[C@H](CCCCN)NC1=O)[C@@H](C)O [PSM-0319, Ac-Thr-Ala-Nmf-[Cys-Lys-Arg-Aib-Asn-Cys]-Tle-Thr-NH2] (Ac-TA[NMeF]CKR[Aib]NC[Tle]T-NH2; disulfide 4-9) | < 200 | 12.6 to 126 |  |
| CNC(=N)NCCC[C@@H]1NC(=O)[C@H](CCCCN)NC(=O)[C@@H](NC(=O)[C@H](Cc2ccc(Cl)cc2)NC(=O)C(C)(C)NC(C)=O)CSSC[C@@H](C(=O)N[C@H](C(=O)NCCNC(=O)CN2CCN(CC(=O)O)CCN(CC(=O)O)CCN(CC(=O)O)CC2)C(C)(C)C)NC(=O)[C@H](CC(N)=O)NC(=O)C(C)(C)NC1=O [PSM-0320, Ac-Aib-Pcf-[Cys-Lys-Arg(Me)-Aib-Asn-Cys]-Tle-en-DOTA] (Ac-[Aib][Phe(4-Cl)]CK[Arg(Me)][Aib]NC[Tle]-{Ethylenediamine-DOTA}; disulfide 3-8) | < 200 | < 12.6 |  |
| CC(=O)N[C@H](C(=O)NC(C)(C)C(=O)N[C@@H](Cc1ccccc1)C(=O)N[C@H]1CSSC[C@@H](C(=O)N[C@H](C(=O)N[C@H](C(N)=O)[C@@H](C)O)C(C)(C)C)NC(=O)[C@H](CC(N)=O)NC(=O)C2(CCN(C(=O)CN3CCN(CC(=O)O)CCN(CC(=O)O)CCN(CC(=O)O)CC3)CC2)NC(=O)[C@H](CCCNC(=N)N)NC(=O)[C@H](CCCCN)NC1=O)[C@@H](C)O [PSM-0321, Ac-Thr-Aib-Phe-[Cys-Lys-Arg-Apc (DOTA)-Asn-Cys]-Tle-Thr-NH2] (Ac-T[Aib]FCKR[Api](DOTA)NC[Tle]T-NH2; disulfide 4-9) | < 200 | < 12.6 |  |
| CC(=O)N[C@H](C(=O)NC(C)(C)C(=O)N[C@@H](Cc1ccc(Cl)cc1)C(=O)N[C@H]1CSSC[C@@H](C(=O)N[C@H](C(=O)N[C@H](C(=O)N[C@H](CCCCNC(=O)CC2CCN(C(=O)CN3CCN(CC(=O)O)CCN(CC(=O)O)CCN(CC(=O)O)CC3)CC2)C(N)=O)[C@@H](C)O)C(C)(C)C)NC(=O)[C@H](CC(N)=O)NC(=O)C(C)(C)NC(=O)[C@H](CCCNC(N)=O)NC(=O)[C@H](CCCCN)NC1=O)[C@@H](C)O [PSM-0322, Ac-Thr-Aib-Pcf-[Cys-Lys-Cit-Aib-Asn-Cys]-Tle-Thr-lys (DOTA-Cmp)-NH2] (Ac-T[Aib][Phe(4-Cl)]CK[Cit][Aib]NC[Tle]T[dK](Acetyl(1-DOTA-4-piperidyl))-NH2; disulfide 4-9) | < 200 | 12.6 to 126 |  |
| CC(=O)N[C@@H](Cc1ccccc1)C(=O)N[C@H]1CSSC[C@@H](C(=O)N[C@@H](CC(C)C)C(=O)N[C@H](C(=O)N[C@@H](CC(=O)O)C(=O)NCCCOCCOCCOCCCNC(=O)CCC(=O)N[C@H](CCCCNC(=O)CN2CCN(CC(=O)O)CCN(CC(=O)O)CCN(CC(=O)O)CC2)C(N)=O)[C@@H](C)O)NC(=O)[C@H](CC(N)=O)NC(=O)[C@H](C)NC(=O)[C@H](CCCNC(=N)N)NC(=O)[C@H](CCCCN)NC1=O [PSM-0323, Ac-Phe-[Cys-Lys-Arg-Ala-Asn-Cys]-Lou-Thr-Asp-Ttds-lys(DOTA)-NH2] (Ac-FCKRANCLTD-{TtdsdLys(DOTA)NH2}; disulfide 2-7) | > 3160 | > 501 |  |
